Results reported in PubChem BioAssay (NCI).
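Dose response: 5 concentrations. Exposure: 48 h. Format: 96-well plates. Endpoint: linear interpolation; highest concentration if not reached. GI50 = concentration required for 50% inhibition of growth. The concentration for full growth arrest is given as TGI.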

How the values were obtained:
Experiment in all cases: NCI tumour cell line growth inhibition, 48 h
786-0 renal = tested on: 786-0 renal
A498 renal = tested on: A498 renal
A549 NSCLC = tested on: A549 NSCLC
ACHN renal = tested on: ACHN renal
BT-549 breast = tested on: BT-549 breast
CAKI-1 renal = tested on: CAKI-1 renal
CCRF-CEM leukemia = tested on: CCRF-CEM leukemia
COLO 205 colon = tested on: COLO 205 colon
DU-145 prostate = tested on: DU-145 prostate
EKVX NSCLC = tested on: EKVX NSCLC
HCC-2998 colon = tested on: HCC-2998 colon
HCT-116 colon = tested on: HCT-116 colon
HCT-15 colon = tested on: HCT-15 colon
HL-60(TB) leukemia = tested on: HL-60(TB) leukemia
HOP-62 NSCLC = tested on: HOP-62 NSCLC
HOP-92 NSCLC = tested on: HOP-92 NSCLC
HS 578T breast = tested on: HS 578T breast
HT29 colon = tested on: HT29 colon
IGROV1 ovarian = tested on: IGROV1 ovarian
K-562 leukemia = tested on: K-562 leukemia
KM12 colon = tested on: KM12 colon
LOX IMVI melanoma = tested on: LOX IMVI melanoma
M14 melanoma = tested on: M14 melanoma
MALME-3M melanoma = tested on: MALME-3M melanoma
MCF7 breast = tested on: MCF7 breast
MDA-MB-231 breast = tested on: MDA-MB-231 breast
MDA-MB-435 = tested on: MDA-MB-435
MOLT-4 leukemia = tested on: MOLT-4 leukemia
NCI-H226 lung = tested on: NCI-H226 lung
NCI-H23 lung = tested on: NCI-H23 lung
NCI-H460 lung = tested on: NCI-H460 lung
NCI-H522 lung = tested on: NCI-H522 lung
NCI/ADR-RES ovarian = tested on: NCI/ADR-RES ovarian
OVCAR-3 ovarian = tested on: OVCAR-3 ovarian
OVCAR-4 ovarian = tested on: OVCAR-4 ovarian
OVCAR-5 ovarian = tested on: OVCAR-5 ovarian
OVCAR-8 ovarian = tested on: OVCAR-8 ovarian
PC-3 prostate = tested on: PC-3 prostate
RPMI-8226 leukemia = tested on: RPMI-8226 leukemia
RXF 393 renal = tested on: RXF 393 renal
SF-268 CNS = tested on: SF-268 CNS
SF-295 CNS = tested on: SF-295 CNS
SF-539 CNS = tested on: SF-539 CNS
SK-MEL-2 melanoma = tested on: SK-MEL-2 melanoma
SK-MEL-28 melanoma = tested on: SK-MEL-28 melanoma
SK-MEL-5 melanoma = tested on: SK-MEL-5 melanoma
SK-OV-3 ovarian = tested on: SK-OV-3 ovarian
SN12C renal = tested on: SN12C renal
SNB-19 CNS = tested on: SNB-19 CNS
SNB-75 CNS = tested on: SNB-75 CNS
SR leukemia = tested on: SR leukemia
SW-620 colon = tested on: SW-620 colon
T-47D breast = tested on: T-47D breast
TK-10 renal = tested on: TK-10 renal
U251 CNS = tested on: U251 CNS
UACC-257 melanoma = tested on: UACC-257 melanoma
UACC-62 melanoma = tested on: UACC-62 melanoma
UO-31 renal = tested on: UO-31 renal
MDA-N = tested on: MDA-N

## CCCN(CCC)C(=O)C1=Cc2ccc(-c3ccc(C(=O)N4CCCC4)cc3)cc2N=C(N)C1
786-0 renal
  GI50: 14.7 µM
  TGI: 42.3 µM
A498 renal
  GI50: 9.01 µM
  TGI: 71.1 µM
A549 NSCLC
  GI50: 7.69 µM
  TGI: 35.3 µM
ACHN renal
  GI50: 8.13 µM
  TGI: 50.9 µM
BT-549 breast
  GI50: 12.8 µM
  TGI: 33.3 µM
CAKI-1 renal
  GI50: 7.66 µM
  TGI: 40.3 µM
CCRF-CEM leukemia
  GI50: 10.6 µM
  TGI: 74.4 µM
COLO 205 colon
  GI50: 4.26 µM
  TGI: 16.3 µM
DU-145 prostate
  GI50: 20.6 µM
  TGI: 91.1 µM
EKVX NSCLC
  GI50: 11.8 µM
  TGI: 57.1 µM
HCC-2998 colon
  GI50: 14.4 µM
  TGI: 35.8 µM
HCT-116 colon
  GI50: 4.55 µM
  TGI: 19.2 µM
HCT-15 colon
  GI50: 4.8 µM
  TGI: 23.1 µM
HL-60(TB) leukemia
  GI50: 3.46 µM
  TGI: 15.6 µM
HOP-62 NSCLC
  GI50: 12.6 µM
  TGI: 65.4 µM
HOP-92 NSCLC
  GI50: 7.99 µM
  TGI: 54.3 µM
HS 578T breast
  GI50: 16 µM
  TGI: 59 µM
HT29 colon
  GI50: 4.28 µM
  TGI: 28.6 µM
IGROV1 ovarian
  GI50: 14.4 µM
  TGI: 54.8 µM
K-562 leukemia
  GI50: 4.45 µM
  TGI: 26.9 µM
KM12 colon
  GI50: 5.01 µM
  TGI: 21.4 µM
LOX IMVI melanoma
  GI50: 9.48 µM
  TGI: 24.2 µM
M14 melanoma
  GI50: 5.66 µM
  TGI: 22.7 µM
MALME-3M melanoma
  GI50: 8.32 µM
  TGI: 23 µM
MCF7 breast
  GI50: 3.32 µM
  TGI: 15.3 µM
MDA-MB-231 breast
  GI50: 13.2 µM
  TGI: 77 µM
MDA-MB-435
  GI50: 2.51 µM
  TGI: 7.58 µM
MOLT-4 leukemia
  GI50: 10.5 µM
  TGI: 64.3 µM
NCI-H226 lung
  GI50: 12.1 µM
  TGI: 62 µM
NCI-H23 lung
  GI50: 8.92 µM
  TGI: 38.9 µM
NCI-H460 lung
  GI50: 4.46 µM
  TGI: 17.4 µM
NCI-H522 lung
  GI50: 4.68 µM
  TGI: 18.8 µM
NCI/ADR-RES ovarian
  GI50: 19.4 µM
  TGI: 62.2 µM
OVCAR-3 ovarian
  GI50: 8.19 µM
  TGI: 26.2 µM
OVCAR-4 ovarian
  GI50: 9.45 µM
  TGI: 69.5 µM
OVCAR-5 ovarian
  GI50: 20.1 µM
  TGI: 64.9 µM
OVCAR-8 ovarian
  GI50: 16.1 µM
  TGI: 68.5 µM
PC-3 prostate
  GI50: 8.56 µM
  TGI: > 95.4 µM
RPMI-8226 leukemia
  GI50: 7.66 µM
  TGI: 36.4 µM
RXF 393 renal
  GI50: 5.13 µM
  TGI: 19.3 µM
SF-268 CNS
  GI50: 15.5 µM
  TGI: 46 µM
SF-295 CNS
  GI50: 4.92 µM
  TGI: 24.5 µM
SF-539 CNS
  GI50: 11.7 µM
  TGI: 27 µM
SK-MEL-2 melanoma
  GI50: 10.6 µM
  TGI: 26.2 µM
SK-MEL-28 melanoma
  GI50: 8.91 µM
  TGI: 24.8 µM
SK-MEL-5 melanoma
  GI50: 2.91 µM
  TGI: 10.9 µM
SK-OV-3 ovarian
  GI50: 18.2 µM
  TGI: 87 µM
SN12C renal
  GI50: 18.4 µM
  TGI: 60 µM
SNB-19 CNS
  GI50: 18.8 µM
  TGI: > 100 µM
SNB-75 CNS
  GI50: 3.8 µM
  TGI: 30.6 µM
SR leukemia
  GI50: 4.21 µM
  TGI: 18.3 µM
SW-620 colon
  GI50: 7.1 µM
  TGI: 31.8 µM
T-47D breast
  GI50: 3.56 µM
  TGI: 26.8 µM
TK-10 renal
  GI50: 19.6 µM
  TGI: 70.1 µM
U251 CNS
  GI50: 7.69 µM
  TGI: 24.6 µM
UACC-257 melanoma
  GI50: 9.03 µM
  TGI: 22.3 µM
UACC-62 melanoma
  GI50: 9.17 µM
  TGI: 26.4 µM
UO-31 renal
  GI50: 9.15 µM
  TGI: 32.8 µM

## Cc1ccc(Cl)c2c(=O)c3ccc([N+](=O)[O-])cc3sc12
786-0 renal
  TGI: > 100 µM
A549 NSCLC
  TGI: > 100 µM
ACHN renal
  TGI: > 100 µM
BT-549 breast
  TGI: > 100 µM
CAKI-1 renal
  TGI: > 100 µM
COLO 205 colon
  TGI: > 100 µM
DU-145 prostate
  TGI: > 100 µM
HCT-116 colon
  TGI: > 100 µM
HCT-15 colon
  TGI: > 100 µM
HOP-62 NSCLC
  TGI: > 100 µM
K-562 leukemia
  TGI: > 100 µM
KM12 colon
  TGI: > 100 µM
MCF7 breast
  TGI: > 100 µM
MDA-N
  TGI: > 100 µM
MOLT-4 leukemia
  TGI: > 100 µM
NCI-H23 lung
  TGI: > 100 µM
OVCAR-3 ovarian
  TGI: > 100 µM
OVCAR-5 ovarian
  TGI: > 100 µM
OVCAR-8 ovarian
  TGI: > 100 µM
PC-3 prostate
  TGI: > 100 µM
RPMI-8226 leukemia
  TGI: > 100 µM
SF-295 CNS
  TGI: > 100 µM
SK-MEL-2 melanoma
  TGI: > 100 µM
SK-MEL-5 melanoma
  TGI: > 100 µM
SNB-19 CNS
  TGI: > 100 µM
UACC-257 melanoma
  TGI: > 100 µM
UACC-62 melanoma
  TGI: > 100 µM
UO-31 renal
  TGI: > 100 µM

## C/C=C/c1c(O)c(=O)c2c(OC)cc(OC)c3c4c(OC)cc(OC)c5c(=O)c(O)c(/C=C/C)c(c1c23)c54
786-0 renal
  TGI: 38.2 µM
A498 renal
  TGI: > 100 µM
A549 NSCLC
  TGI: > 100 µM
ACHN renal
  TGI: 13.8 µM
BT-549 breast
  TGI: 14.3 µM
CAKI-1 renal
  TGI: 21.1 µM
CCRF-CEM leukemia
  TGI: > 100 µM
COLO 205 colon
  TGI: 19.1 µM
DU-145 prostate
  TGI: 23.4 µM
EKVX NSCLC
  TGI: 40.5 µM
HCC-2998 colon
  TGI: > 100 µM
HCT-116 colon
  TGI: 28 µM
HOP-62 NSCLC
  TGI: 54.5 µM
HOP-92 NSCLC
  TGI: 35.5 µM
HT29 colon
  TGI: 23.8 µM
IGROV1 ovarian
  TGI: 19.2 µM
K-562 leukemia
  TGI: > 100 µM
KM12 colon
  TGI: 31.6 µM
LOX IMVI melanoma
  TGI: 57.4 µM
M14 melanoma
  TGI: > 100 µM
MALME-3M melanoma
  TGI: 19.6 µM
MCF7 breast
  TGI: > 100 µM
MDA-MB-231 breast
  TGI: 34.9 µM
MDA-MB-435
  TGI: 26.1 µM
MDA-N
  TGI: 29.4 µM
MOLT-4 leukemia
  TGI: > 100 µM
NCI-H226 lung
  TGI: 15.8 µM
NCI-H23 lung
  TGI: 23.9 µM
NCI-H460 lung
  TGI: 44.3 µM
NCI-H522 lung
  TGI: 16.9 µM
NCI/ADR-RES ovarian
  TGI: 34 µM
OVCAR-3 ovarian
  TGI: 15.5 µM
OVCAR-4 ovarian
  TGI: 29.5 µM
OVCAR-5 ovarian
  TGI: 68.9 µM
OVCAR-8 ovarian
  TGI: 31.4 µM
PC-3 prostate
  TGI: 19.8 µM
RPMI-8226 leukemia
  TGI: > 100 µM
SF-268 CNS
  TGI: 24.6 µM
SF-295 CNS
  TGI: > 100 µM
SF-539 CNS
  TGI: > 100 µM
SK-MEL-2 melanoma
  TGI: 24.9 µM
SK-MEL-28 melanoma
  TGI: 36.6 µM
SK-MEL-5 melanoma
  TGI: 24.3 µM
SK-OV-3 ovarian
  TGI: > 100 µM
SN12C renal
  TGI: 41.8 µM
SNB-19 CNS
  TGI: 17.2 µM
SNB-75 CNS
  TGI: 28.7 µM
SR leukemia
  TGI: > 100 µM
SW-620 colon
  TGI: 87.8 µM
U251 CNS
  TGI: 47.1 µM
UACC-257 melanoma
  TGI: 45.5 µM
UACC-62 melanoma
  TGI: 30.6 µM
UO-31 renal
  TGI: 6.33 µM
